Measured values from BindingDB's records for doi:10.1016/S0960-894X(01)80156-6 (1994).
Where a SMILES comes first, the peptide text is derived from it. Bridges are numbered along the chain shown (N, C = ends). [ ]: non-standard residue; d: D form. Aoc = NCCCCCCCC(=O)O; Ava = NCCCCC(=O)O

Molecular target: Endothelin A receptor (Oryctolagus cuniculus)
Experiment: Binding affinity against Endothelin A receptor in rabbit renal artery vascular smooth muscle membrane (ET-A)

SMILES	IC50
CC[C@H](C)[C@H](NC(=O)[C@H](CC(=O)O)NC(=O)[C@H](CC(C)C)NC(=O)[C@H](Cc1cnc[nH]1)NC(=O)[C@@H]1CSSC[C@H](N)C(=O)N[C@@H](CO)C(=O)NCCCCCCCC(=O)N[C@@H](C(C)C)C(=O)N[C@@H](Cc2ccc(O)cc2)C(=O)N[C@@H](Cc2ccccc2)C(=O)N1)C(=O)N[C@H](C(=O)N[C@@H](Cc1c[nH]c2ccccc12)C(=O)O)[C@@H](C)CC [Trp-Ile-Ile-Asp-Leu-Hisc(Cys-Ser-Aoa-Val-Tyr-Phe-Cys)] (H-CS[Aoc]VYFCHLDIIW-OH; disulfide 1-7)	1.8 µM
CC[C@H](C)[C@H](NC(=O)[C@H](CC(=O)O)NC(=O)[C@H](CC(C)C)NC(=O)[C@H](Cc1c[nH]cn1)NC(=O)[C@@H]1CSSC[C@H](N)C(=O)N[C@@H](CO)C(=O)NCCCCC(=O)N[C@@H](C(C)C)C(=O)N[C@@H](Cc2ccc(O)cc2)C(=O)N[C@@H](Cc2ccccc2)C(=O)N1)C(=O)N[C@H](C(=O)N[C@@H](Cc1c[nH]c2ccccc12)C(=O)O)[C@@H](C)CC [Trp-Ile-Ile-Asp-Leu-Hisc(Cys-Ser-Apa-Val-Tyr-Phe-Cys)] (H-CS[Ava]VYFCHLDIIW-OH; disulfide 1-7)	2.5 µM
CC[C@H](C)[C@H](NC(=O)[C@H](CC(=O)O)NC(=O)[C@H](CC(C)C)NC(=O)[C@H](Cc1c[nH]cn1)NC(=O)[C@@H]1CSSC[C@H](N)C(=O)N[C@@H](CO)C(=O)N[C@@H](CO)C(=O)N[C@@H](C(C)C)C(=O)N[C@@H](Cc2ccc(O)cc2)C(=O)N[C@@H](Cc2ccccc2)C(=O)N1)C(=O)N[C@H](C(=O)N[C@@H](Cc1c[nH]c2ccccc12)C(=O)O)[C@@H](C)CC [Trp-Ile-Ile-Asp-Leu-Hisc(Cys-Ser-Ser-Val-Tyr-Phe-Cys)] (H-CSSVYFCHLDIIW-OH; disulfide 1-7)	2 µM
CC[C@H](C)[C@H](NC(=O)[C@H](CC(=O)O)NC(=O)[C@H](CC(C)C)NC(=O)[C@H](Cc1c[nH]cn1)NC(=O)[C@@H]1CSSC[C@H](N)C(=O)N[C@@H](CO)C(=O)N[C@@H](C(C)C)C(=O)N[C@@H](Cc2ccc(O)cc2)C(=O)N[C@@H](Cc2ccccc2)C(=O)N1)C(=O)N[C@H](C(=O)N[C@@H](Cc1c[nH]c2ccccc12)C(=O)O)[C@@H](C)CC [Trp-Ile-Ile-Asp-Leu-Hisc(Cys-Ser-Val-Tyr-Phe-Cys)] (H-CSVYFCHLDIIW-OH; disulfide 1-6)	3.8 µM
